{"source": "patent US20260083129A1", "about": "“PYRAZOLE AMIDE INSECTICIDES” (FMC CORPORATION, priority 2022, published 2026)", "test_system": "cotton melon aphid (Aphis gossypii (Glover))", "test": "Test C: control of cotton melon aphid on sprayed okra plant", "format": "in vivo", "details": "sprayed at 250 ppm; assessed after 6 days", "description": "Test compounds were formulated using a solution containing 10% acetone, 90% water and 300 ppm Activator 90@non-ionic surfactant (Loveland Products, Loveland, Colorado, USA). The formulated compounds were applied in 1 mL of liquid through an atomized nozzle positioned 1.27 cm (0.5 inches) above the top of each test unit. Test compounds were sprayed at the rates indicated, and each test was replicated three times.\nFor evaluating control of cotton melon aphid (Aphis gossypii (Glover)) through contact and/or systemic means, the test unit consisted of a small open container with a 5-day-old okra plant inside. This was pre-infested with 30-40 insects on a piece of leaf according to the cut-leaf method, and the soil of the test unit was covered with a layer of sand.\nTest compounds were formulated and sprayed at 250, 50, 10, and 2 ppm with three replications as described above. After spraying, the test units were maintained in a growth chamber for 6 days at 19° C. and 70% relative humidity. Each test unit was then visually assessed for insect mortality.", "data": [{"smiles": "CC(c1c([N+](=O)[O-])cnn1-c1ncccn1)N(C)C(=O)c1cc(C(F)(F)F)cc(C(F)(F)F)c1", "note": "(stereo not shown) [Compound 96]", "values": [{"measurement": "mortality", "value": "at least 80%"}]}]}
